Reference: patent US20120059162A1, “FUSED IMIDAZOLE DERIVATIVE HAVING TTK INHIBITORY ACTION” (Oncotherapy Science, Inc., priority 2009, published 2012)
Where two headings read alike, the source gives them in different places.

Legend:
[1] = biological target: T1, TTK (Homo sapiens, UniProt P33981); experiment: TTK assay: screening of TTK kinase activity suppressing action using p38 MAPK peptide; format: biochemical; conditions: read-out: TTK IC50
T1 sequence (P33981 1-857): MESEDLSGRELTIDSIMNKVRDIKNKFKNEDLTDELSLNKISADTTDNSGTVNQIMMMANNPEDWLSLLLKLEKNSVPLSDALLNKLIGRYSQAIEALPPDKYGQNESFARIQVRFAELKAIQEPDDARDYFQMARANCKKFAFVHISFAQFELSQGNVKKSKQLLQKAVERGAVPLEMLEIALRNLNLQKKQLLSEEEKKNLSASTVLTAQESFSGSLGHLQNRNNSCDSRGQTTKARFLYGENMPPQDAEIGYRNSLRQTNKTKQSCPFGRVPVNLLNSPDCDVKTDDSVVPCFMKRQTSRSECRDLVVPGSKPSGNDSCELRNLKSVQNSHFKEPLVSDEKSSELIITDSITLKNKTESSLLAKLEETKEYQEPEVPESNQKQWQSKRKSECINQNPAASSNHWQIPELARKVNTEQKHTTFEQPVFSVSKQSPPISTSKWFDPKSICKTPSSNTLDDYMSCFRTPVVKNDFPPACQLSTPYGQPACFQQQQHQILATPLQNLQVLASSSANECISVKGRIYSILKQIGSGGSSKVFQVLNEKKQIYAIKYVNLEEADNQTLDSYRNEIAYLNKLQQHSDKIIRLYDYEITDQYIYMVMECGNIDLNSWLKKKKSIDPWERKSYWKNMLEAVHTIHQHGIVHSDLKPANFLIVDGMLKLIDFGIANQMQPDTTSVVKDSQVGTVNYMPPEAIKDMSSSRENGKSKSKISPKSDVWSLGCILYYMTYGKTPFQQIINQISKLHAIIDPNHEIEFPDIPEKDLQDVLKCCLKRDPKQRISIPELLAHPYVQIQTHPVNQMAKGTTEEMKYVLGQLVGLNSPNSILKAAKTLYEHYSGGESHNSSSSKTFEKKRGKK
In short: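 TTK (4 μg/ml in enzyme solution) mixed with p38 MAPK peptide and ATP (each 60 μM in substrate solution) in Tris-HCl pH 7.5 with MgCl2, DTT, Na3VO4, β-glycerophosphate, BSA. Reaction aliquot captured on NeutrAvidin plate, detected with Eu-labelled anti-mouse IgG by time-resolved fluorescence; inhibition relative to no-compound signal.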

[2] = test system: A549; experiment: A549 assay: screening of cancer cell growth inhibiting compound; format: cell-based; conditions: Homo sapiens, A549 cells, read-out: A549 IC50
In short: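 A549 cells (1×10^4/ml) in D-MEM with 10% FBS were pre-incubated one day at 37 °C, then exposed to compound dilutions for three further days. Viable cell number read by WST-8 (1–4 hours), absorbance 450 nm (reference 620 nm); inhibition calculated relative to untreated wells.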

SMILES | IC50 ([1]; p38 MAPK peptide substrate) [µM] | IC50 ([2]; 72 h, three days, WST-8) [µM] | IC50 [1] [µM] | IC50 ([2]; values given as IC50 intervals) [µM]
CC(C)(C)CC(C)(C)Nc1cc(NCC2CCOCC2)c2ncc(-c3ccc(C(=O)NC4CC4)cc3)n2n1 [Example 2-81] | 0.004 | ≤ 0.05 |  | 
O=C(NC1CC1)c1ccc(-c2cnc3c(NCC4CCOCC4)cc(Nc4ncccc4O)nn23)cc1 [Example 2-35] | 0.0193 | 1 to 10 |  | 
COCCN(c1cc(NCC2CCOCC2)c2ncc(-c3ccc(C(=O)NC4CC4)cc3)n2n1)C1CCCC1 [Example 2-29] | 0.0062 | 0.05 to 0.5 |  | 
O=C(NC1CC1)c1ccc(-c2cnc3c(NCC4CCOCC4)c(Cl)c(NC4CCCC4)nn23)cc1 [Example 2-218] |  |  | 0.0126 | 0.5 to 1
COc1cccc(Oc2cc(NCC3CCOCC3)c3ncc(-c4ccc(C(=O)NC5CC5)cc4)n3n2)c1 [Example 2-109] | 0.0033 | 0.05 to 0.5 |  | 
Nc1cccc(Oc2cc(NCC3CCOCC3)c3ncc(-c4ccc(C(=O)NC5CC5)cc4)n3n2)c1 [Example 2-91] | 0.0023 | ≤ 0.05 |  | 
O=C(NC1CC1)c1ccc(-c2cnc3c(NCC4CCOCC4)cc(NC4CCOCC4)nn23)cc1 [Example 2-13] | 0.0059 | 0.05 to 0.5 |  | 
CN(c1cc(NCC2CCOCC2)c2ncc(-c3ccc(C(=O)NC4CC4)cc3)n2n1)C1CCCCC1 [Example 2-17] | 0.0031 | ≤ 0.05 |  | 
Cn1cc(CNc2cc(NC3CCCCC3)nn3c(-c4ccc(C(=O)NC5CC5)cc4)cnc23)cn1 [Example 2-150] | 0.0038 | 0.05 to 0.5 |  | 
CC1(Nc2cc(NCC3CCOCC3)c3ncc(-c4ccc(C(=O)NC5CC5)cc4)n3n2)CCCC1 [Example 2-75] | 0.0036 | ≤ 0.05 |  | 
O=C(NC1CC1)c1ccc(-c2cnc3c(NCC4CCOCC4)cc(OC4CCCCC4O)nn23)cc1 (stereo not drawn) [Example 2-188] |  |  | 0.0053 | 0.05 to 0.5
CC(C)(Nc1cc(NCC2CCOCC2)c2ncc(-c3ccc(C(=O)NC4CC4)c(F)c3)n2n1)C(F)(F)F [Example 2-219] |  |  | 0.0043 | ≤ 0.05
CC(C)(C)CNc1cc(NC2CCCCC2)nn2c(-c3ccc(C(=O)NC4CC4)cc3)cnc12 [Example 2-135] | 0.0096 | 0.05 to 0.5 |  | 
O=C(NC1CC1)c1ccc(-c2cnc3c(NCC(F)F)cc(NC4CCCCC4)nn23)cc1 [Example 2-144] | 0.0035 | 0.05 to 0.5 |  | 
C#CC(CC)(CC)Nc1cc(NCC2CCOCC2)c2ncc(-c3ccc(C(=O)NC4CC4)cc3)n2n1 [Example 2-76] | 0.0189 | 0.5 to 1 |  | 
O=C(NC1CC1)c1ccc(-c2cnc3c(NCC4CCOCC4)cc(C=C4CCCCC4)nn23)cc1 [Example 2-207] |  |  | 0.0057 | 0.5 to 1
O=C(NC1CC1)c1ccc(-c2cnc3c(NCC4(O)CCOCC4)cc(NC4CCCCC4)nn23)cc1 [Example 2-169] |  |  | 0.0072 | 0.05 to 0.5

SMILES | IC50 ([1]; p38 MAPK peptide substrate) [µM] | IC50 ([2]; 72 h, three days, WST-8) [µM] | IC50 [1] [µM] | IC50 ([2]; values given as IC50 intervals) [µM]
CC(Nc1cc(NCC2CCOCC2)c2ncc(-c3ccc(C(=O)NC4CC4)cc3)n2n1)C(F)(F)F (stereo not drawn) [Example 2-61] | 0.0051 | ≤ 0.05 |  | 
CC(C)C(C)(C)Nc1cc(NCC2CCOCC2)c2ncc(-c3ccc(C(=O)NC4CC4)cc3)n2n1 [Example 2-82] | 0.006 | ≤ 0.05 |  | 
N#Cc1ccc(-c2cn3c(-c4ccc(C(=O)NC5CC5)cc4)cnc3c(NCCc3cccc(O)c3)n2)cc1 [Example 1-226] | 0.0171 | 0.5 to 1 |  | 
N#Cc1ccc(-c2cn3c(-c4ccc(C(=O)NC5CC5)cc4)cnc3c(NCCOCCOCCO)n2)cc1 [Example 1-237] | 0.0399 | 1 to 10 |  | 
Cc1cc(-c2cnc3c(NCC4CCOCC4)cc(NC4CCCC4)nn23)ccc1C(=O)NC1CC1 [Example 2-232] |  |  | 0.0028 | 0.05 to 0.5
O=C(NC1CC1)c1ccc(-c2cnc3c(NCC4CCOCC4)cc(NC4CCCC4)nn23)c(Cl)c1 [Example 2-231] |  |  | 0.0057 | 0.05 to 0.5
COc1cc(NCC2CCOCC2)c2ncc(-c3ccc(C(=O)NC4CC4)cc3)n2n1 [Example 2-172] |  |  | 0.0203 | 0.5 to 1
N#Cc1ccc(-c2cc(NCC3CCOCC3)c3ncc(-c4ccc(C(=O)NC5CC5)cc4)n3n2)cn1 [Example 2-199] |  |  | 0.0074 | 0.05 to 0.5
O=C(NC1CC1)c1ccc(-c2cnc3c(NCC4CCCCC4)cc(NC4CCCCC4)nn23)cc1 [Example 2-125] | 0.0086 | 0.05 to 0.5 |  | 
O=C(NC1CC1)c1ccc(-c2cnc3c(NCC4CCOCC4)cc(NC4CCCC4)nn23)c(F)c1 [Example 2-227] |  |  | 0.0035 | 0.05 to 0.5
O=C(NC1CC1)c1ccc(-c2cnc3c(NCc4cccnc4)cc(NC4CCCCC4)nn23)cc1 [Example 2-156] | 0.0044 | 0.05 to 0.5 |  | 
O=C(NC1CC1)c1ccc(-c2cnc3c(NCC4CC4)cc(NC4CCCCC4)nn23)cc1 [Example 2-132] | 0.0068 | 0.05 to 0.5 |  | 
O=C(NC1CC1)c1ccc(-c2cnc3c(NCC4CCOCC4)cc(N4CCN(C(=O)C5CC5)CC4)nn23)cc1 [Example 2-47] | 0.0031 | 0.05 to 0.5 |  | 
COc1ccccc1Oc1cc(NCC2CCOCC2)c2ncc(-c3ccc(C(=O)NC4CC4)cc3)n2n1 [Example 2-95] | 0.0025 | 0.05 to 0.5 |  | 
CC(=O)N1CCC(CNc2cc(NC3CCCCC3)nn3c(-c4ccc(C(=O)NC5CC5)cc4)cnc23)CC1 [Example 2-127] | 0.005 | 0.05 to 0.5 |  | 
O=C(NC1CC1)c1ccc(-c2cnc3c(NCc4ccoc4)cc(NC4CCCCC4)nn23)cc1 [Example 2-157] | 0.0034 | 0.05 to 0.5 |  | 
